According to the kinase profiling compilation of Christmann-Franck et al. (2016):

How the values were obtained:
Test in all cases: KINOMEscan competition binding
Conditions in all cases: compound 10.0 µM
ACVR1 (human) = ACVR1 (human) (UniProt Q04771)
ACVR2B (human) = ACVR2B (human) (UniProt Q13705)
ADCK4 (human) = ADCK4 (human) (UniProt Q96D53)
ANKK1 (human) = ANKK1 (human) (UniProt Q8NFD2)
AURKB (human) = AURKB (human) (UniProt Q96GD4)
CAMKK2 (human) = CAMKK2 (human) (UniProt Q96RR4)
CDK14 (human) = CDK14 (human) (UniProt O94921)
CDK16 (human) = CDK16 (human) (UniProt Q00536)
Chain of CDK16 (human) (Q00536 whole entry, looked up): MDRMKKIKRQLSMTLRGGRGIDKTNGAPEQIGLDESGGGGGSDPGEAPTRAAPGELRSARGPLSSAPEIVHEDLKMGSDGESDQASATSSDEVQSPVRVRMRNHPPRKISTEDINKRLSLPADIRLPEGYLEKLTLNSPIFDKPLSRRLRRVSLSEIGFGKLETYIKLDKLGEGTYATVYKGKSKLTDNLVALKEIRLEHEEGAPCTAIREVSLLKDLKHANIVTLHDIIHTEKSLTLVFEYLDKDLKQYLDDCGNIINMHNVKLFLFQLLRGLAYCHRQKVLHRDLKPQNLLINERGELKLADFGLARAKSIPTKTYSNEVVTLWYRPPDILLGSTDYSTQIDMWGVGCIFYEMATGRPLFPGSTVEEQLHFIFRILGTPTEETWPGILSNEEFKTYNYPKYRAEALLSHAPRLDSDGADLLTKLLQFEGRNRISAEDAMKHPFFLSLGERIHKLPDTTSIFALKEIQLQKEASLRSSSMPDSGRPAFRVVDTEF

CDK7 (human) = CDK7 (human) (UniProt P50613)
CSNK1D (human) = CSNK1D (human) (UniProt P48730)
CSNK1G1 (human) = CSNK1G1 (human) (UniProt Q9HCP0)
DAPK1 (human) = DAPK1 (human) (UniProt P53355)
DCLK2 (human) = DCLK2 (human) (UniProt Q8N568)
Chain of DCLK2 (human) (Q8N568 whole entry, looked up): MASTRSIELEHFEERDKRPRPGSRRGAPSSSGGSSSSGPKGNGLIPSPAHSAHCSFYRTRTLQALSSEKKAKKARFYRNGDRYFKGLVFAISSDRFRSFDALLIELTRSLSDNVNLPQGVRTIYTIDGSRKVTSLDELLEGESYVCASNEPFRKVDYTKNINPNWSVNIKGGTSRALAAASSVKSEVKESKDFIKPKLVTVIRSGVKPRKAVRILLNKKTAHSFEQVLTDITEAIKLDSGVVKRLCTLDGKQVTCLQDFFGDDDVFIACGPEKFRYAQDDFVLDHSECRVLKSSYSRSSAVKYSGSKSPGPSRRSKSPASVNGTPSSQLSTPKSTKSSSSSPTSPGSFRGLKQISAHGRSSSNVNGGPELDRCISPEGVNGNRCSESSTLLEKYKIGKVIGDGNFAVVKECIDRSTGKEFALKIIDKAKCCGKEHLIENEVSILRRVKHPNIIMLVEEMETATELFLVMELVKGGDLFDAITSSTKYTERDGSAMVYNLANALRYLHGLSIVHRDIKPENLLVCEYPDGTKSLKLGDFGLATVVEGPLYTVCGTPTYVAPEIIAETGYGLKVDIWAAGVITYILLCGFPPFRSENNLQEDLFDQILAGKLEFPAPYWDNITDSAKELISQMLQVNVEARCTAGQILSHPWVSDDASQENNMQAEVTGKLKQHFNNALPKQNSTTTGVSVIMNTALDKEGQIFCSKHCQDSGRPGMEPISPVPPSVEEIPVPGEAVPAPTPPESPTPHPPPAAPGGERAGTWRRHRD

EPHA8 (human) = EPHA8 (human) (UniProt P29322)
GSK3A (human) = GSK3A (human) (UniProt P49840)
[1] = target: JAK2 JH1 catalytic (human) (UniProt O60674)
LATS1 (human) = LATS1 (human) (UniProt O95835)
LYN (human) = LYN (human) (UniProt P07948)
MAP3K11 (human) = MAP3K11 (human) (UniProt Q16584)
MAP3K4 (human) = MAP3K4 (human) (UniProt Q9Y6R4)
MLTK (human) = MLTK (human) (UniProt Q9NYL2)
MYO3A (human) = MYO3A (human) (UniProt Q8NEV4)
NEK1 (human) = NEK1 (human) (UniProt Q96PY6)
NEK9 (human) = NEK9 (human) (UniProt Q8TD19)
NUAK1 (human) = NUAK1 (human) (UniProt O60285)
PAK2 (human) = PAK2 (human) (UniProt Q13177)
PDGFRA (human) = PDGFRA (human) (UniProt P16234)
PHKG1 (human) = PHKG1 (human) (UniProt Q16816)
PHKG2 (human) = PHKG2 (human) (UniProt P15735)
PIK3CB (human) = PIK3CB (human) (UniProt P42338)
PLK1 (human) = PLK1 (human) (UniProt P53350)
Chain of PLK1 (human) (P53350 whole entry, looked up): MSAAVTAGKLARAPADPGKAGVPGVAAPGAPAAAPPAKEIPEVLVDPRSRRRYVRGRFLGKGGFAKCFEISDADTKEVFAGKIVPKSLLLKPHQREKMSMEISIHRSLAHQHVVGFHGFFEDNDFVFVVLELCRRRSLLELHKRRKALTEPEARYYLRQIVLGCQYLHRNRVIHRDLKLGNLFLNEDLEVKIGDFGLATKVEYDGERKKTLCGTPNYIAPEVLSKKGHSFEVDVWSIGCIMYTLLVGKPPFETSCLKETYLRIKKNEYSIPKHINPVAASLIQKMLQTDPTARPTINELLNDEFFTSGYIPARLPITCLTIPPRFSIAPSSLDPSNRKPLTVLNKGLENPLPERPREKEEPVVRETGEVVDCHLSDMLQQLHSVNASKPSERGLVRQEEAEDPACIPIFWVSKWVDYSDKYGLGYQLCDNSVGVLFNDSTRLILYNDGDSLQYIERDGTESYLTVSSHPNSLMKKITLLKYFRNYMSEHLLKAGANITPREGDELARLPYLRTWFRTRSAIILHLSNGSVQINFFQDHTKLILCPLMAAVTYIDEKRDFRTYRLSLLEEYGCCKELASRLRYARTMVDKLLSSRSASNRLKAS

PRKACA (human) = PRKACA (human) (UniProt P17612)
PTK2B (human) = PTK2B (human) (UniProt Q14289)
RET (human) = RET (human) (UniProt P07949)
Chain of RET (human) (P07949 whole entry, looked up): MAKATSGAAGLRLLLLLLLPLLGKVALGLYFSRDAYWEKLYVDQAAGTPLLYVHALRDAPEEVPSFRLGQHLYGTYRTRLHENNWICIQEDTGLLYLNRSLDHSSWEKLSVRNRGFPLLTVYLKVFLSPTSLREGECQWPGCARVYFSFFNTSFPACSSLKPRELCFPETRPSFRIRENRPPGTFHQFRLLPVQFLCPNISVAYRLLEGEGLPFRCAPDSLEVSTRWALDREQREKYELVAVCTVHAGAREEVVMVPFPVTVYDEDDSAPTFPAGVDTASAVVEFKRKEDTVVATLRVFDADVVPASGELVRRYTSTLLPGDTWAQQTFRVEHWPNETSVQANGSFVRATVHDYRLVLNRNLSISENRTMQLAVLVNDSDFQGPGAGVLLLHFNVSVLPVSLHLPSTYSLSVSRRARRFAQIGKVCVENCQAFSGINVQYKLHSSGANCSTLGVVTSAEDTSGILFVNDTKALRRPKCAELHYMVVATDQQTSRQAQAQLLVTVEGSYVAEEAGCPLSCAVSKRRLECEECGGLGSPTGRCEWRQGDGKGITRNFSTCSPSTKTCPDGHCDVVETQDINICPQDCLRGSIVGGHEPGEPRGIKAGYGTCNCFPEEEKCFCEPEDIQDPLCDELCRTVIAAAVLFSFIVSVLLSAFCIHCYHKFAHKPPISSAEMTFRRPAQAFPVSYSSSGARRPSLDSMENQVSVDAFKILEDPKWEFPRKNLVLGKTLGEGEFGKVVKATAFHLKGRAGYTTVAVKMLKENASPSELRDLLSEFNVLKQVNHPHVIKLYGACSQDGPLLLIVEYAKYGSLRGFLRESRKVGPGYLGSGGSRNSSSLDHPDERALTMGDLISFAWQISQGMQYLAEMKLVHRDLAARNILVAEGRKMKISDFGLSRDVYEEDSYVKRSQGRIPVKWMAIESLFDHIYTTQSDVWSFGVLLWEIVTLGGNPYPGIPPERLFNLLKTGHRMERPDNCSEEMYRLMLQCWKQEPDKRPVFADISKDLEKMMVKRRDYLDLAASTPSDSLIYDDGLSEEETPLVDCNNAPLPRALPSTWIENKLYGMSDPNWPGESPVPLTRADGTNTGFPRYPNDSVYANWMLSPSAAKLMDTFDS

RIOK3 (human) = RIOK3 (human) (UniProt O14730)
RPS6KA6 KD2 (human) = RPS6KA6 KD2 (human) (UniProt Q9UK32)
Chain of RPS6KA6 KD2 (human) (Q9UK32 whole entry, looked up): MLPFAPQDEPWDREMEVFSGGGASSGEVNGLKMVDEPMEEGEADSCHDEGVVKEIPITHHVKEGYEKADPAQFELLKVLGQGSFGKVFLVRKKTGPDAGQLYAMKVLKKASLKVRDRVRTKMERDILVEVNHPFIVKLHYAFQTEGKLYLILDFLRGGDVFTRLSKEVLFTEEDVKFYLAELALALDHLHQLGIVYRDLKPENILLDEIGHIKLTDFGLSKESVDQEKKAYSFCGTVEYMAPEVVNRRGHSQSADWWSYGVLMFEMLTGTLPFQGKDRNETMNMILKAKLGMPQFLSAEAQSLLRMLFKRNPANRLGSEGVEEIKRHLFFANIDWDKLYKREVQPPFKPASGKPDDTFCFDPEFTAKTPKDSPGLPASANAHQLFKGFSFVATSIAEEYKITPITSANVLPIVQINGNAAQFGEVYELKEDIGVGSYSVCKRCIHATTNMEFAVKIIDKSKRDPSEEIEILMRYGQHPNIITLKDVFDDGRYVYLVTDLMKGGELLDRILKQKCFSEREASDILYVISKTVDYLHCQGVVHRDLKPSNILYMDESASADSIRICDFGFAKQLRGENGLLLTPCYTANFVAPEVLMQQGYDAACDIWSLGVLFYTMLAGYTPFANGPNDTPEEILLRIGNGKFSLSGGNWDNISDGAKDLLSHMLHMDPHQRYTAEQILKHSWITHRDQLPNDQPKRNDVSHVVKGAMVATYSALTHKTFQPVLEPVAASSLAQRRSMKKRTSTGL

STK25 (human) = STK25 (human) (UniProt O00506)
Chain of STK25 (human) (O00506 whole entry, looked up): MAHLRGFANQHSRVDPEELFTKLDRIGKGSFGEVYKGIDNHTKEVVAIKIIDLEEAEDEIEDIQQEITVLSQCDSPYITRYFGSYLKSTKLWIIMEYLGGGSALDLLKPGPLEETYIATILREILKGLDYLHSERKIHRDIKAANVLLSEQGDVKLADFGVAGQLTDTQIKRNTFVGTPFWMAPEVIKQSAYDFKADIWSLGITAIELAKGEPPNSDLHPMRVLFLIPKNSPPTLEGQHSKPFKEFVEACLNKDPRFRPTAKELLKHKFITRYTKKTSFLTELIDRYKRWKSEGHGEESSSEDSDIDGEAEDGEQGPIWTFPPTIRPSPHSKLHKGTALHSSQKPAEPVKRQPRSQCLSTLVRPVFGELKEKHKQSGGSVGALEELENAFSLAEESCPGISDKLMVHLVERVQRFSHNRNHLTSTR

TGFBR1 (human) = TGFBR1 (human) (UniProt P36897)
TLK2 (human) = TLK2 (human) (UniProt Q86UE8)
Chain of TLK2 (human) (Q86UE8 whole entry, looked up): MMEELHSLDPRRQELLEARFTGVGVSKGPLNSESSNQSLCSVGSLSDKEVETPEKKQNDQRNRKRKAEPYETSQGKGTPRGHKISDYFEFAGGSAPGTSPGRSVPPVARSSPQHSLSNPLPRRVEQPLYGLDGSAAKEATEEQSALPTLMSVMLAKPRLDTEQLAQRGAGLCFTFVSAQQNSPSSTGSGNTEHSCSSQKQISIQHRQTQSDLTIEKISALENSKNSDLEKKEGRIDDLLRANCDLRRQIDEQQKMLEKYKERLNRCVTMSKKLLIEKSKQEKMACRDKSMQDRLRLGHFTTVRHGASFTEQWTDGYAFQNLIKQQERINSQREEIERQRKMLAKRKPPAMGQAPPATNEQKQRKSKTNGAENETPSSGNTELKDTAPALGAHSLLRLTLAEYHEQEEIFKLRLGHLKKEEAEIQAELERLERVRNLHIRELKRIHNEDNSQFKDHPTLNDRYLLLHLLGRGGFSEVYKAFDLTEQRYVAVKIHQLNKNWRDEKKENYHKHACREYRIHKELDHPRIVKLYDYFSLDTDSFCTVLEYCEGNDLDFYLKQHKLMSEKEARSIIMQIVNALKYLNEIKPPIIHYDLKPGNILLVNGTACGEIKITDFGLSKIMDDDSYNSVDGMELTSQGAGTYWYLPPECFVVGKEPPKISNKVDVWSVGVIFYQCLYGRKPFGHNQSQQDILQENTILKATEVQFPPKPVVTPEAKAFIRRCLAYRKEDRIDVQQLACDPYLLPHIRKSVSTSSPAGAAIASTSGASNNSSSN

ULK1 (human) = ULK1 (human) (UniProt O75385)

Row | SMILES | kinase still bound, per cent of control (ACVR1 (human)) [%] | kinase still bound, per cent of control (ACVR2B (human)) [%] | kinase still bound, per cent of control (ADCK4 (human)) [%] | kinase still bound, per cent of control (ANKK1 (human)) [%] | kinase still bound, per cent of control (AURKB (human)) [%] | kinase still bound, per cent of control (CAMKK2 (human)) [%] | kinase still bound, per cent of control (CDK14 (human)) [%] | kinase still bound, per cent of control (CDK16 (human)) [%] | kinase still bound, per cent of control (CDK7 (human)) [%] | kinase still bound, per cent of control (CSNK1D (human)) [%] | kinase still bound, per cent of control (CSNK1G1 (human)) [%] | kinase still bound, per cent of control (DAPK1 (human)) [%] | kinase still bound, per cent of control (DCLK2 (human)) [%] | kinase still bound, per cent of control (EPHA8 (human)) [%] | kinase still bound, per cent of control (GSK3A (human)) [%] | kinase still bound, per cent of control [1] [%] | kinase still bound, per cent of control (LATS1 (human)) [%] | kinase still bound, per cent of control (LYN (human)) [%] | kinase still bound, per cent of control (MAP3K11 (human)) [%] | kinase still bound, per cent of control (MAP3K4 (human)) [%] | also measured
1 | Cc1ccc(NC(=O)c2cccc(C(C)(C)C#N)c2)cc1Nc1ccc2ncn(C)c(=O)c2c1 | 100 | 100 | 100 | 100 | 100 | 28 | 100 | 100 | 100 | 100 | 88 | 100 | 100 | 2.1 | 100 | 100 | 100 | 0.3 | 91 | 100 | kinase still bound, per cent of control (MLTK (human)): 6.5%; kinase still bound, per cent of control (MYO3A (human)): 100%; kinase still bound, per cent of control (NEK1 (human)): 100%; kinase still bound, per cent of control (NEK9 (human)): 100%; kinase still bound, per cent of control (NUAK1 (human)): 100%; kinase still bound, per cent of control (PAK2 (human)): 100%; kinase still bound, per cent of control (PDGFRA (human)): 0.1%; kinase still bound, per cent of control (PHKG1 (human)): 100%; kinase still bound, per cent of control (PHKG2 (human)): 100%; kinase still bound, per cent of control (PIK3CB (human)): 100%; kinase still bound, per cent of control (PLK1 (human)): 100%; kinase still bound, per cent of control (PRKACA (human)): 100%; kinase still bound, per cent of control (PTK2B (human)): 100%; kinase still bound, per cent of control (RET (human)): 0.15%; kinase still bound, per cent of control (RIOK3 (human)): 100%; kinase still bound, per cent of control (RPS6KA6 KD2 (human)): 3.5%; kinase still bound, per cent of control (STK25 (human)): 100%; kinase still bound, per cent of control (TGFBR1 (human)): 100%; kinase still bound, per cent of control (TLK2 (human)): 100%; kinase still bound, per cent of control (ULK1 (human)): 94%
2 | COc1cc(N2CCN(C)CC2)ccc1Nc1nc(N)c(C(=O)c2c(Cl)cccc2Cl)s1 | 100 | 92 | 81 | 96 | 93 | 14 | 91 | 62 | 2.8 | 100 | 100 | 85 | 4.1 | 73 | 67 | 80 | 100 | 100 | 96 | 100 | kinase still bound, per cent of control (MLTK (human)): 100%; kinase still bound, per cent of control (MYO3A (human)): 85%; kinase still bound, per cent of control (NEK1 (human)): 75%; kinase still bound, per cent of control (NEK9 (human)): 100%; kinase still bound, per cent of control (NUAK1 (human)): 100%; kinase still bound, per cent of control (PAK2 (human)): 100%; kinase still bound, per cent of control (PDGFRA (human)): 84%; kinase still bound, per cent of control (PHKG1 (human)): 82%; kinase still bound, per cent of control (PHKG2 (human)): 43%; kinase still bound, per cent of control (PIK3CB (human)): 100%; kinase still bound, per cent of control (PLK1 (human)): 72%; kinase still bound, per cent of control (PRKACA (human)): 91%; kinase still bound, per cent of control (PTK2B (human)): 42%; kinase still bound, per cent of control (RET (human)): 97%; kinase still bound, per cent of control (RIOK3 (human)): 100%; kinase still bound, per cent of control (RPS6KA6 KD2 (human)): 28%; kinase still bound, per cent of control (STK25 (human)): 66%; kinase still bound, per cent of control (TGFBR1 (human)): 100%; kinase still bound, per cent of control (TLK2 (human)): 93%; kinase still bound, per cent of control (ULK1 (human)): 93%
3 | O=C(NC1CC1)c1cccc(-c2ccc3c(NC(=O)C4CC4)n[nH]c3c2)c1 | 48 | 84 | 88 | 8 | 30 | 94 | 46 | 5 | 18 | 78 | 85 | 91 | 100 | 92 | 84 | 18 | 61 | 83 | 100 | 93 | kinase still bound, per cent of control (MLTK (human)): 100%; kinase still bound, per cent of control (MYO3A (human)): 72%; kinase still bound, per cent of control (NEK1 (human)): 86%; kinase still bound, per cent of control (NEK9 (human)): 100%; kinase still bound, per cent of control (NUAK1 (human)): 100%; kinase still bound, per cent of control (PAK2 (human)): 69%; kinase still bound, per cent of control (PDGFRA (human)): 29%; kinase still bound, per cent of control (PHKG1 (human)): 76%; kinase still bound, per cent of control (PHKG2 (human)): 84%; kinase still bound, per cent of control (PIK3CB (human)): 100%; kinase still bound, per cent of control (PLK1 (human)): 78%; kinase still bound, per cent of control (PRKACA (human)): 100%; kinase still bound, per cent of control (PTK2B (human)): 100%; kinase still bound, per cent of control (RET (human)): 86%; kinase still bound, per cent of control (RIOK3 (human)): 6.8%; kinase still bound, per cent of control (RPS6KA6 KD2 (human)): 60%; kinase still bound, per cent of control (STK25 (human)): 76%; kinase still bound, per cent of control (TGFBR1 (human)): 77%; kinase still bound, per cent of control (TLK2 (human)): 79%; kinase still bound, per cent of control (ULK1 (human)): 100%
